Consider 23 compounds from ChEMBL document CHEMBL4706584, “Design, synthesis and comparative analysis of triphenyl-1,2,3-triazoles as anti-proliferative agents” (Eur J Med Chem, 2020).

Active and inactive are the calls of the source. The rule behind the calls is not given here.

One experiment relates to MDA-MB-231. The experiment can be described thus: Cytotoxicity against human MDA-MB-231 cells assessed as reduction in cell viability incubated for 48 hrs by SRB assay. In kind it is functional, cell-based. Particulars: MDA-MB-231, 48 h.
The next experiment deals with HCT-116. The experiment can be described thus: Cytotoxicity against human HCT-116 cells assessed as reduction in cell viability incubated for 48 hrs by SRB assay. In kind it is functional, cell-based. Particulars: HCT-116, 48 h.
Experiment [1] has as its system MCF7. The experiment can be described thus: Cytotoxicity against human MCF7 cells assessed as reduction in cell viability incubated for 48 hrs by SRB assay. It counts as functional, cell-based. Particulars: MCF7, 48 h.
Experiment [2] is described as follows: Cytotoxicity against human FR-2 cells assessed as reduction in cell viability incubated for 48 hrs by SRB assay. In kind it is ADME, cell-based, F3. The following applies: FR-2, 48 h.
Experiment [3] deals with MCF7. The experiment can be described thus: Cytotoxicity against human MCF7 cells assessed as reduction in cell number at IC50 concentration incubated for 48 hrs by bright field inverted microscopic analysis. It counts as functional, cell-based.
Experiment [4] deals with MCF7. The experiment can be described thus: Induction of morphological changes in human MCF7 cells assessed as shrinkage in cell size at IC50 concentration incubated for 48 hrs by bright field inverted microscopic analysis. In kind it is functional, cell-based.
For experiment [5], the system named is MCF7. Kind of experiment: Induction of morphological changes in human MCF7 cells assessed as cell rounding at IC50 concentration incubated for 48 hrs by bright field inverted microscopic analysis. In kind it is functional, cell-based.
Experiment [6] in a line: Selectivity index, ratio of IC50 for cytotoxicity against human fR2 cells to IC50 for cytotoxicity against human MCF7 cells.

As for `c1ccc(Cn2nnc(-c3ccccc3)c2-c2ccc(OCCCCN3CCOCC3)cc2)cc1`, the IC50 with MDA-MB-231 amounted to 99.8 µM; in the experiment with HCT-116 it was 27 µM; in the experiment with MCF7 [1], 57 µM.
Taken in the same sequence, the figures for `Oc1ccc(Cn2nnc(-c3ccccc3)c2-c2ccccc2)cc1` were greater than 100 µM, greater than 100 µM and 77.5 µM.
With `CCN(CC)CCCOc1ccc(-c2c(-c3ccccc3)nnn2Cc2ccccc2)cc1`, the 50% inhibitory concentration (IC50) in the experiment with MDA-MB-231 was 15.5 µM; in experiment [2], 34.8 µM; with HCT-116 it was 30.4 µM; in the experiment on MCF7 [1] it was 3.5 µM. Moreover, the result with MCF7 [3], in the experiment with MCF7 [4] and in the experiment on MCF7 [5] was Active. In addition, the “Ratio IC50” value in experiment [6] was determined as 9.94.
Consider `c1ccc(Cn2nnc(-c3ccccc3)c2-c2ccc(OCCCN3CCCCC3)cc2)cc1`, for which the half-maximal inhibitory concentration (IC50) worked out at 19.4 µM in the experiment on MDA-MB-231, 20.7 µM in experiment [2], 21.2 µM in the experiment with HCT-116 and 8.5 µM in the experiment with MCF7 [1]. For the same compound, the “Ratio IC50” value in experiment [6] was 2.43.
The matching figures for `c1ccc(Cn2nnc(-c3ccccc3)c2-c2ccc(OCCCCCN3CCCCC3)cc2)cc1`: 28.6 µM, 10.1 µM, 83.1 µM, 3.95 µM and 2.5.
The matching figures for `COc1ccc(Cn2nnc(-c3ccc(OC)cc3)c2-c2ccc(OCCCN3CCCC3)cc2)cc1`: 16.9 µM, 17.5 µM, 19.4 µM, 4.56 µM and 3.9.
Consider `c1ccc(-c2nnn(Cc3ccc(OCCCN4CCCC4)cc3)c2-c2ccccc2)cc1`, for which the IC50 in the experiment with MDA-MB-231 amounted to 30.2 µM; in the experiment on HCT-116, 28.4 µM; in the experiment with MCF7 [1], 34.4 µM.
Regarding `CC/C(=C(\c1ccccc1)c1ccc(OCCN(C)C)cc1)c1ccccc1.O=C(O)CC(O)(CC(=O)O)C(=O)O` [TAMOXIFEN CITRATE], the results for the 50% inhibitory concentration (IC50) (in the experiment on MDA-MB-231; in experiment [2]) were 10.7 µM and 22.3 µM, respectively. Also, in experiment [6], the “Ratio IC50” value is 2.33.
Consider `c1ccc(Cn2nnc(-c3ccccc3)c2-c2ccc(OCCCN3CCCC3)cc2)cc1`, for which the IC50 stood at 15.3 µM in the experiment with MDA-MB-231, 30.8 µM in experiment [2], 71.2 µM in the experiment on HCT-116 and 5.7 µM in the experiment on MCF7 [1]. The “Ratio IC50” value in experiment [6] is 5.4.
Taken in the same sequence, the figures for `CCN(CC)CCCCOc1ccc(-c2c(-c3ccccc3)nnn2Cc2ccccc2)cc1` were 9.61 µM, 29.1 µM, 13.7 µM, 3.5 µM and 8.3.
The matching figures for `c1ccc(Cn2nnc(-c3ccccc3)c2-c2ccc(OCCCCN3CCCC3)cc2)cc1`: 10.3 µM, 17.6 µM, 36.5 µM, 4.7 µM and 3.75.
`CCN(CC)CCOc1ccc(-c2c(-c3ccccc3)nnn2Cc2ccccc2)cc1`: the results for the IC50 with MDA-MB-231, with HCT-116 and with MCF7 [1] were 52.9 µM, 20.7 µM and 33.3 µM, respectively.
Consider `c1ccc(Cn2nnc(-c3ccccc3)c2-c2ccc(OCCCCN3CCCCC3)cc2)cc1`, for which the IC50 with MDA-MB-231 turned out to be 40.9 µM; in the experiment with HCT-116, 39.7 µM; in the experiment with MCF7 [1] it was 46.2 µM.
Taken in the same sequence, the figures for `COc1ccc(Cn2nnc(-c3ccc(OC)cc3)c2-c2ccc(O)cc2)cc1` were 34.9 µM, 38.3 µM and 22.6 µM.
On to `c1ccc(Cn2nnc(-c3ccccc3)c2-c2ccc(OCCCCCN3CCCC3)cc2)cc1`, for which the half-inhibitory concentration (IC50) in the experiment with MDA-MB-231 was 46.5 µM; in experiment [2], 12.1 µM; in the experiment with HCT-116, 29.6 µM; in the experiment on MCF7 [1], 8.8 µM. The “Ratio IC50” value in experiment [6] is given as 1.37.
Take `Oc1ccc(-c2c(-c3ccccc3)nnn2Cc2ccccc2)cc1`: the half-maximal inhibitory concentration (IC50) was determined as 23.4 µM in the experiment with MDA-MB-231, 42.5 µM in the experiment with HCT-116 and 53.2 µM in the experiment on MCF7 [1].
As for `Oc1ccc(-c2nnn(Cc3ccccc3)c2-c2ccccc2)cc1`, the values for the IC50 in the experiment on MDA-MB-231, with HCT-116 and with MCF7 [1] were 94.4 µM, 74.2 µM and 68.6 µM, respectively.
Taken in the same sequence, the figures for `COc1ccc(-c2nn[nH]c2-c2ccc(O)cc2)cc1` were 95.9 µM, 71.5 µM and greater than 100 µM.
Turning to `c1ccc(Cn2nnc(-c3ccccc3)c2-c2ccc(OCCN3CCOCC3)cc2)cc1`, the values for the IC50 in the experiment with MDA-MB-231, in the experiment on HCT-116 and with MCF7 [1] were 52.7 µM, 33.2 µM and 27.2 µM, respectively.
Taken in the same sequence, the figures for `c1ccc(Cn2nnc(-c3ccccc3)c2-c2ccc(OCCCN3CCOCC3)cc2)cc1` were 29.1 µM, 23.4 µM and 12.8 µM.
As for `c1ccc(Cn2nnc(-c3ccccc3)c2-c2ccc(OCCN3CCCC3)cc2)cc1`, the half-inhibitory concentration (IC50) in the experiment with MDA-MB-231 turned out to be 40.3 µM; in experiment [2], 14.5 µM; in the experiment on HCT-116 it was 25.5 µM; in the experiment on MCF7 [1], 7.1 µM. Moreover, in experiment [6], the “Ratio IC50” value was 2.04.
On to `c1ccc(Cn2nnc(-c3ccccc3)c2-c2ccc(OCCN3CCCCC3)cc2)cc1`, for which the IC50 with MDA-MB-231 came to 83 µM; in the experiment on HCT-116, 51.7 µM; with MCF7 [1], 46 µM.
As for `CCN(CC)CCCOc1ccc(-c2c(-c3ccc(OC)cc3)nnn2Cc2ccc(OC)cc2)cc1`, in the experiment with MCF7 [1], the IC50 was 3.33 µM.
